In ChEMBL document CHEMBL4699511, “Cedrol, a Sesquiterpene Alcohol, Enhances the Anticancer Efficacy of Temozolomide in Attenuating Drug Resistance via Regulation of the DNA Damage Response and MGMT Expression” (J Nat Prod, 2020):
Activity calls are given as the source filed them. No cut-off for these calls is given here.

Legend:
RG2 [1] = test: Synergistic cytotoxicity against rat RG2 cells assessed as synergistic effect index at 112.4 uM after 48 hrs in presence of 309 uM TMZ by MTT assay; format: functional
RG2 [2] = test: Synergistic cytotoxicity against rat RG2 cells assessed as synergistic effect index at 112.4 uM after 48 hrs in presence of 515.1 uM TMZ by MTT assay; format: functional
[3] = Synergistic cytotoxicity against rat CTX TNA2 cells assessed as synergistic effect index at 89.9 uM after 48 hrs in presence of 412.1 uM TMZ by MTT assay; format: cell-based; conditions: ctx tna2, 48 h
[4] = Synergistic cytotoxicity against rat CTX TNA2 cells assessed as synergistic effect index at 112.4 uM after 48 hrs in presence of 206 uM TMZ by MTT assay; format: cell-based; conditions: ctx tna2, 48 h
[5] = Synergistic cytotoxicity against rat CTX TNA2 cells assessed as synergistic effect index at 134.9 uM after 48 hrs in presence of 206 uM TMZ by MTT assay; format: cell-based; conditions: ctx tna2, 48 h
[6] = Synergistic cytotoxicity against rat CTX TNA2 cells assessed as combination index at 134.9 uM after 48 hrs in presence of 103 uM TMZ by MTT assay; format: cell-based; conditions: ctx tna2, 48 h
DBTRG-05MG [7] = test: Induction of cell cycle arrest in human DBTRG-05MG cells assessed as accumulation at S phase at 112.4 uM after 6 hrs by propidium iodide staining based flow cytometric analysis (reference value: 22.76 +/- 1.56%); format: functional
DBTRG-05MG [8] = test: Induction of cell cycle arrest in human DBTRG-05MG cells assessed as accumulation at G2/M phase at 112.4 uM after 24 hrs by propidium iodide staining based flow cytometric analysis (reference value: 30.08 +/- 0.1%); format: functional
RG2 [9] = test: Induction of cell cycle arrest in rat RG2 cells assessed as accumulation at S phase at 112.4 uM after 6 hrs in presence of TMZ by propidium iodide staining based flow cytometric analysis (reference value: 20.15 +/- 2.44%); format: functional
RG2 [10] = test: Induction of cell cycle arrest in rat RG2 cells assessed as accumulation at G2/M phase at 112.4 uM after 24 hrs by propidium iodide staining based flow cytometric analysis (reference value: 20.04 +/- 0.55%); format: functional
RG2 [11] = test: Induction of cell cycle arrest in rat RG2 cells assessed as accumulation at G2/M phase at 112.4 uM after 24 hrs in presence of TMZ by propidium iodide staining based flow cytometric analysis (reference value: 20.04 +/- 0.55%); format: functional
DBTRG-05MG [12] = test: Induction of cell cycle arrest in human DBTRG-05MG cells assessed as p21 expression at 112.4 uM after 48 hrs in presence of TMZ by Western blot analysis (reference value: 1); format: functional
DBTRG-05MG [13] = test: Inhibition of JNK phosphorylation at Thr183/Tyr185 residues in human DBTRG-05MG cells at 112.4uM after 48 hrs by Western blot analysis (reference value: 1); format: cell-based
[14] = Effect on ERK expression in human DBTRG-05MG cells at 112.4uM after 48 hrs by Western blot analysis (reference value: 1); format: functional
[15] = Effect on AKT expression in human DBTRG-05MG cells at 112.4uM after 48 hrs in presence of TMZ by Western blot analysis (reference value: 1); format: functional
RG2 [16] = test: Inhibition of ERK phosphorylation at Tyr204 residues in rat RG2 cells at 112.4uM after 48 hrs by Western blot analysis (reference value: 1); format: cell-based
DBTRG-05MG [17] = test: Induction of apoptosis in human DBTRG-05MG cells assessed as Bax expression at 112.4 uM after 48 hrs by Western blot analysis (reference value: 1); format: functional
DBTRG-05MG [18] = test: Induction of apoptosis in human DBTRG-05MG cells assessed as cleaved caspace-3 expression at 112.4 uM after 48 hrs by Western blot analysis (reference value: 1); format: functional
RG2 [19] = test: Induction of DNA damage in rat RG2 cells assessed as H2A.X phosphorylation at ser139 at 112.4 uM after 48 hrs by Western blot analysis (reference value: 1); format: functional
[20] = Effect of CD133 expression in human DBTRG-05MG cells at 112.4 uM after 48 hrs by Western blot analysis; format: functional
DBTRG-05MG [21] = test: Antitumour activity against human DBTRG-05MG cells xenografted in BALB/c nude mouse assessed as increase in survival time at 75 mg/kg, sc for every 2 days for 20 days and measured every 2 days; format: functional, organism-based; conditions: time 20.0 day
DBTRG-05MG [22] = test: Potentiation of TMZ-induced antitumor activity against human DBTRG-05MG cells xenografted in BALB/c nude mouse assessed as reduction in tumor growth at 75 mg/kg, sc co-treated with TMZ for 18 days by H and E staining-based bright field microscopic analysis; format: functional, organism-based; conditions: time 18.0 day
[23] = Toxicity in BALB/c mouse xenografted with DBTRG-05MG cells assessed as inflammatory cell infiltration score in liver at 5 mg/kg, ip for 5 days by H and E staining-based bright field microscopic analysis; format: organism-based; conditions: in vivo, 120 h, time 5 day
RG2 [24] = test: Induction of cell cycle arrest in rat RG2 cells assessed as accumulation at S phase at 206 uM after 12 hrs by propidium iodide staining based flow cytometric analysis (reference value: 20.15 +/- 2.44%); format: functional
RG2 [25] = test: Induction of cell cycle arrest in rat RG2 cells assessed as accumulation at G0/G1 phase at 206 uM after 24 hrs by propidium iodide staining based flow cytometric analysis (reference value: 57.81 +/- 1.9%); format: functional
DBTRG-05MG [26] = test: Induction of cell cycle arrest in human DBTRG-05MG cells assessed as CyclinB1 expression at 206 uM after 48 hrs by Western blot analysis (reference value: 1); format: functional
[27] = Effect on JNK expression in human DBTRG-05MG cells at 206 uM after 48 hrs by Western blot analysis (reference value: 1); format: functional
RG2 [28] = test: Inhibition of p38 phosphorylation at Tyr182 residues in rat RG2 cells at 206 uM after 48 hrs by Western blot analysis (reference value: 1); format: cell-based
DBTRG-05MG [29] = test: Induction of apoptosis in human DBTRG-05MG cells assessed as cleaved PARP expression at 206 uM after 48 hrs by Western blot analysis (reference value: 1); format: functional
RG2 [30] = test: Induction of apoptosis in rat RG2 cells assessed as phosphorylated caspace-9 expression at 206 uM after 48 hrs by Western blot analysis (reference value: 1); format: functional
RG2 [31] = test: Induction of apoptosis in rat RG2 cells assessed as cleaved caspace-9 expression at 206 uM after 48 hrs by Western blot analysis (reference value: 1); format: functional
RG2 [32] = test: Induction of apoptosis in rat RG2 cells assessed as phosphorylated caspace-3 expression at 206 uM after 48 hrs by Western blot analysis (reference value: 1); format: functional
RG2 [33] = test: Induction of apoptosis in rat RG2 cells assessed as cleaved PARP expression at 206 uM after 48 hrs by Western blot analysis (reference value: 1); format: functional
DBTRG-05MG [34] = test: Induction of DNA damage in human DBTRG-05MG cells assessed as ATM phosphorylation at ser1981 residues at 206 uM after 48 hrs by Western blot analysis (reference value: 1); format: functional

SMILES: C[C@@H]1CC[C@H]2C(C)(C)[C@H]3C[C@@]12CC[C@@]3(C)O [CEDROL]
- Activity_index (RG2 [1]): 0.85
- Activity_index (RG2 [2]): 0.83
- Activity_index [3]: 0.56
- Activity_index [4]: 0.4
- Activity_index [5]: 0.43
- CI [6]: 1.23
- Activity (DBTRG-05MG [7]): 16.38%
- Activity (DBTRG-05MG [8]): 26.38%
- Activity (RG2 [9]): 19.02%
- Activity (RG2 [10]): 18.42%
- Activity (RG2 [11]): 26.19%
- fold change (FC) (DBTRG-05MG [12]): 2.7
- fold change (FC) (DBTRG-05MG [13]): 1
- fold change (FC) [14]: 1
- fold change (FC) [15]: 0.6
- fold change (FC) (RG2 [16]): 0.9
- fold change (FC) (DBTRG-05MG [17]): 1.3
- fold change (FC) (DBTRG-05MG [18]): 2.2
- fold change (FC) (RG2 [19]): 1
- fold change (FC) [20]: 1.5
- Activity (DBTRG-05MG [21]): Active
- Activity (DBTRG-05MG [22]): Active
- Activity [23]: 2.38

SMILES: Cn1nnc2c(C(N)=O)ncn2c1=O [TEMOZOLOMIDE]
- Activity (RG2 [24]): 22.12%
- Activity (RG2 [25]): 52.7%
- fold change (FC) (DBTRG-05MG [26]): 1.4
- fold change (FC) [27]: 0.7
- fold change (FC) (RG2 [28]): 1.3
- fold change (FC) (DBTRG-05MG [29]): 1.4
- fold change (FC) (RG2 [30]): 0.8
- fold change (FC) (RG2 [31]): 1.7
- fold change (FC) (RG2 [32]): 1.1
- fold change (FC) (RG2 [33]): 1.5
- fold change (FC) (DBTRG-05MG [34]): 2.8
